Source: patent US7402593B2 (priority 2004, dated 2008)

Experiments:
in vivo = conditions: dog, plasma, po, 50 mg/kg
[1] = compared with other PPIs such as omeprazole or lansoprazole; cited from earlier work

Row | Compound | solubility (solubility in water; water) [µg/mL] | AUC(0-t) (in vivo) [µg·h/mL] | Cmax (in vivo) [ng/mL] | Tmax (in vivo) [h] | half-life in plasma relative to other PPIs [1] | highest concentration of solution obtainable (solubility in water; room temperature) [g/L]
1 | COc1ccc2[nH]c([S+]([O-])Cc3ncc(C)c(OC)c3C)nc2n1 (racemic) [racemic tenatoprazole, 5-methoxy-2-[ [(4-methoxy-3,5-dimethyl-2-pyridyl)methyl]sulfinyl]imidazo[4,5-b]pyridine] | < 1000 | 156 | 50.2 | 1.5 | approximately seven times longer | 
2 | COc1ccc2nc([S+]([O-])Cc3ncc(C)c(OC)c3C)[n-]c2n1.[Na+] (racemic) [sodium salt of racemic tenatoprazole] |  |  |  |  |  | ≤ 19
